Experiments:
[1] = target: T1, recombinant HIV reverse transcriptase (HIV RTR) (Human immunodeficiency virus type 1 group M subtype B, UniProt P04585); experiment: Reverse Transcriptase Assay; type: biochemical; conditions: incorporation of [3H]dGMP into acid-precipitable cDNA; dGTP and poly r(C).oligo d(G)12-18 at Km; 37° C., 45 minutes; read-out: calculated IC50 value
T1 construct: recombinant HIV reverse transcriptase (HIV RTR)
Experimental: The assay measures the incorporation of tritiated deoxyguanosine monophosphate by recombinant HIV reverse transcriptase (HIV RTR) (or other RT) into acid-precipitable cDNA at the Km values of dGTP and poly r(C).oligo d(G)12-18.
Thirty uL of a reaction mixture containing equal volumes of: 500 mM Tris.HCl (pH 8.2), 300 mM MgCl2, 1200 mM KCl, 10 mM DTT, 400 μg/mL poly r(c).oligo d(G) [prepared by dissolving 1.5 mg (25 U) poly r(C).oligo d(G) in 1.5 ml sterile distilled H2 O and diluting to 400 μg/ml], 0.1 μCi/μl [^3 H] dGTP, 160 μM dGTP, was added to 10 μl sterile distilled H2 O, and 2.5 μl of potential inhibitor. An aliquot of 10 μL of 5 nM purified HIV RTR was added to initiate the reaction. The mixture was incubated at 37° C. for 45 minutes.
After incubation is complete, the tubes were cooled in ice for 5 minutes. Ice-cold 13% TCA containing 10 mM NaPPi (200 μl) are added and the mixture incubated on ice for 30 minutes. The precipitated cDNA is removed by filtration using presoaked glass filters [TCA, NaPPi ]. The precipitate is then washed with 1N HCl, 10 mM NaPPi.
The filter discs are then counted in a scintillation counter.
Under these conditions [dGTP] and poly r(C).oligo d(G)12-18 each are approximately equal to the appropriate Km value. Approximately 5-6,000 cpm of [^3 H] GMP are incorporated into acid-precipitable material. The RT reaction is concentration- and time-dependent.

[2] = Incubation With Rat Liver Slices; type: in vitro ADME
Experimental: Incubation of tritiated 3-[2-(benzoxazol-2-yl)ethyl]-5-ethyl-6-methyl-2-(1H)-pyridinone (parent compound/14.18 μmol) with rat liver slices (6.1 g) in 100 ml of Williams Medium E at pH. […] Ethyl acetate extraction gave a recovery of ~70% of the tritiated material, while ~25% (~9 HPLC peaks) remained in the aqueous residue.

metabolised at 4 h ([2]; tritiated compound 14.18 μmol, rat liver slices 6.1 g, Williams Medium E, pH 7.4, 37° C., four hours, read-out: metabolism) [%]	Compound	IC50 [1] [nM]	radioactive HPLC peak, share of the total metabolites ([2]; ethyl acetate extract after four hours incubation of parent compound with rat liver slices)
	Cc1[nH]c(=O)c(CCc2nc3ccccc3o2)cc1C(C)O (stereo not drawn) [compound (I), 3-[2-(benzoxazol-2-yl)ethyl]-5-(1-hydroxyethyl)-6-methyl-2(1H)-pyridinone]	~710	~ 37%
~32	CCc1cc(CCc2nc3ccccc3o2)c(O)nc1C [parent compound, 3-[2-(Benzoxazol-2-yl)ethyl]-5-ethyl-6-methyl-2-(1H)-pyridinone]		

Reference: patent US5387512A, “Preparation of 3-[z-benzoxazol-2-yl)ethyl]-5-(1-hydroxyethyl)-6-methyl-2-(1H)-pyridinon e by biotransformation” (Merck & Co. Inc., priority 1992, dated 1995)
